Test results reported in patent US5112594A, “Kit for preparing a technetium-99m myocardial imaging agent” (Mallinckrodt Medical, Inc., priority 1991, dated 1992).

Experiment: Biodistribution Data of Selected Tc-99m(III) Complexes in Guinea Pigs
Type: in vivo
Settings: for Heart/Blood / Heart/Liver: ratio

| % Heart uptake (5 min) | % Heart uptake (60 min) | Heart/Blood (5 min) | Heart/Liver (5 min) | Heart/Blood (60 min) | Heart/Liver (60 min) | Substance |
| --- | --- | --- | --- | --- | --- | --- |
| 0.8 % Injected dose/Organ | 0.9 % Injected dose/Organ | 5.4 | 1.2 | 58.6 | 3.0 | trans-[1,2-bis[dihydro-2,2,5,5-tetramethyl-3(2H)furanone-4-methyleneamino]ethane]bis-[tris(2-(2-(1,3-dioxanyl))]ethylphosphine]technetium-99m(III) [Complex IV] |
| 0.9 % Injected dose/Organ | 0.8 % Injected dose/Organ | 6.1 | 1.6 | 26.5 | 5.6 | trans-[1-[dihydro-2,2,5,5-tetramethyl-3(2H)furanthione-4-methyleneamino]-2-[dihydro-2,2,5,5-tetramethyl-3(2H)furanone-4-methyleneaminoethane]bis[tris(3-methoxypropyl)phosphine]technetium-99m(III) [Complex II] |
| 1.1 % Injected dose/Organ | 1.0 % Injected dose/Organ | 5.9 | 0.9 | 3.5 | 1.5 | trans-[1,2-bis[dihydro-2,2,5,5-tetramethyl-3(2H)furanthione-4-methyleneamino]ethane]-bis[tris(3-methoxypropyl)phosphine]technetium-99m (III) [Complex III] |

| Substance | % Heart uptake (5 min) | % Heart uptake (60 min) | Heart/Blood (5 min) | Heart/Liver (5 min) | Heart/Blood (60 min) | Heart/Liver (60 min) |
| --- | --- | --- | --- | --- | --- | --- |
| trans-[1,2-bis[dihydro-2,2,5,5-tetramethyl-3(2H)furanone-4-methyleneamino]ethane]bis[tris(3-methoxypropyl)phosphine]technetium-99m(III) [Complex I] | 0.8 % Injected dose/Organ | 0.9 % Injected dose/Organ | 4.6 | 1.5 | 35.6 | 6.6 |
